Article PMC12015663 (Cancer Research Communications, 2025)

Key:
[1] = PK parameters in mouse; type: in vivo; details: Mouse PK (at efficacious doses), 12 – 25 mg/kg, QD
Description: (§1) The mice in the control vehicle group were dosed either daily or twice daily.

[2] = tested on: pERK in sNF96.2 (NF1-LOF); test: pERK modulation in vitro, MSD ELISA, sNF96.2; details: SNF96.2, 1 h, read-out: pERK EC50
[3] = tested on: pERK in NF1-LOF tumor cell lines sNF96.2, MeWo, and NCI-H1838; test: pERK modulation pattern, MSD ELISA, statements on all three NF1-LOF tumor cell lines; details: 6 hours after treatment
[4] = tested on: plexiform neurofibroma; details: GEMM models of plexiform neurofibroma, germline NF1-LOF mutations; cited from earlier work
[5] = tested on: pERK in NCI-H1838 (NF1-LOF); test: pERK modulation in vitro, MSD ELISA, NCI-H1838
[6] = tested on: AGK::BRAF fusion melanoma PDX; test: Antitumor efficacy in vivo, AGK::BRAF fusion melanoma PDX; parameters: species or system mice; details: for effect on tumor growth: NOD/SCID mice
Description: (§2) Female mice with tumors harboring an AGK::BRAF fusion melanoma PDX or NF1-LOF ERMS PDX were established by inoculating NOD or NOG/SCID mice, respectively, with tumor fragments harvested from stock mice. Mice with tumors harboring an NF1-LOF mutation MeWo xenograft were established in 10 mice per treatment group by inoculating 7- to 9-week-old female BALB/c nude mice on the right flank with tumor cells (5 × 10^6) in 0.1 mL of PBS mixed with Matrigel (1:1) for tumor development. For the AGK::BRAF fusion melanoma PDX model, 7- to 8-week-old mice were inoculated subcutaneously on the right flank and randomized into eight mice per treatment group. For the NF1-LOF ERMS PDX model, tumor fragments were harvested from stock animals and implanted unilaterally on the left flank of 6- to 8-week-old mice and then the mice were randomized into 10 mice per treatment group. After tumor cell inoculation, the animals were checked daily for morbidity and mortality. All experiments were performed once.
Purified water (type II or high-performance liquid chromatography grade) was used as aqueous suspension vehicle and control for in vivo efficacy experiments. […] Tovorafenib was freshly prepared every day prior to dosing.
Randomization was performed based on the “Matched distribution” method (StudyDirector software, version 3.1.399.19) with the date of randomization denoted as day 0. Tumor volumes and body weight were measured twice per week after randomization. Tumor volume was measured in two dimensions (2D) using a caliper, and the volume was expressed in mm^3 using the formula V = (L × W × W)/2, in which V was tumor volume, L was tumor length (the longest tumor dimension), and W was tumor width (the longest tumor dimension perpendicular to L). Percentage change in tumor volume and body weight was calculated using StudyDirector software (version 3.1.399.19).
as §1

[7] = tested on: NF1-LOF MeWo xenograft; test: Antitumor efficacy in vivo, NF1-LOF MeWo xenograft; parameters: species or system mice; details: 25 mg/kg orally daily for 28 days
Description: as §2, with “For the NF1-LOF ERMS PDX model, tumor fragments were harvested from stock animals and implanted unilaterally on the left flank of 6- to 8-week-old mice and then the mice were randomized into 10 mice per treatment group. After tumor cell inoculation, the animals were checked daily for morbidity and mortality. All experiments were performed once.” left out
Randomization was performed based on the “Matched distribution” method (StudyDirector software, version 3.1.399.19) with the date of randomization denoted as day 0. Tumor volumes and body weight were measured twice per week after randomization. Tumor volume was measured in two dimensions (2D) using a caliper, and the volume was expressed in mm^3 using the formula V = (L × W × W)/2, in which V was tumor volume, L was tumor length (the longest tumor dimension), and W was tumor width (the longest tumor dimension perpendicular to L). Percentage change in tumor volume and body weight was calculated using StudyDirector software (version 3.1.399.19). […]

[8] = tested on: pERK in AGK::BRAF fusion melanoma PDX tumors; test: pERK modulation in vivo (PK-PD study), AGK::BRAF fusion melanoma PDX tumors, Western blot; parameters: species or system mice
Description: Tumor and plasma samples were collected at 4, 8, and 24 hours after dose administration (three mice per timepoint). […] Tumor and plasma samples were collected at 4 and 24 hours after dose administration (three mice per time point). Tumor samples were snap-frozen and analyzed by Western blotting for pERK levels. Plasma samples were analyzed by the LC/MS-MS method to confirm plasma drug concentration.
Tumor samples were lysed with RIPA buffer (Thermo Fisher Scientific, cat. no. 89901) containing one complete EDTA-free tablet (Roche, cat. no. 05892791001) and one phosphatase inhibitor cocktail tablet (Roche, cat. no. 04906845001) per 10 mL of RIPA buffer. Protein concentration was determined using bicinchoninic acid assay (Pierce, cat. no. 23227). Samples were loaded at 25 to 30 μg/lane on 4% to 12% NuPAGE Bis-Tris gels (Invitrogen, cat. no. WG1403BOX) and were run in MOPS-SDS running buffer (Invitrogen, cat. no. NP0001) at constant voltage (120V) for approximately 2 hours. The gels were transferred onto a pre-activated polyvinylidene fluoride membrane (Millipore, cat. no. IPVH00010) in transfer buffer (Bio-Rad, cat. no. 161-0734). […] Blots were scanned and quantified using the Odyssey (LI-COR Biosciences) or Tanon 5200 Multi Image system (Tanon), and each sample was normalized to allow comparison.

[9] = tested on: MeWo; test: CellTiter-Glo cell viability assay, MeWo
[10] = tested on: A375; test: CellTiter-Glo cell viability assay, A375
[11] = tested on: NCI-H1838; test: CellTiter-Glo cell viability assay, NCI-H1838

C[C@@H](NC(=O)c1ncnc(N)c1Cl)c1ncc(C(=O)Nc2cc(C(F)(F)F)c(Cl)cn2)s1 [Tovorafenib]
Cmin [1]: 596 to 1265 ng/mL | AUC(0-t) ([1]; plasma, oral, read-out: Daily AUC0-24): 50100 to 96600 ng·h/mL | EC50 [2]: 1.6 µM | pERK modulation pattern over concentration [3]: increased pERK levels at lower concentrations of tovorafenib and pERK decreasing at higher inhibitor concentrations | antitumor activity [4]: lack of tovorafenib antitumor activity | EC50 ([5]; Homo sapiens, NCI-H1838, 1 h, read-out: pERK EC50): > 10 µM | extent of the pERK increase ([5]; NCI-H1838, 1 hour after treatment, compared across type II RAF inhibitors): higher extent | pERK increase across the full concentration range ([5]; NCI-H1838, 6 hours after treatment): lack of increase in pERK | day on which tumors started to regrow ([6]; 17.5 mg/kg daily, approximately 2 weeks after the last dosage): 28 days | effect on tumor growth ([6]; 17.5 mg/kg orally daily for 14 days): tumor regression was observed | effect on tumor growth ([6]; 25 mg/kg orally daily for 14 days): tumor regression was observed | tolerability ([6]; 25 and 17.5 mg/kg orally daily, both dose levels): well tolerated | body weight loss ([6]; 25 and 17.5 mg/kg orally daily, throughout the treatment): no significant body weight loss | time tumor regression was sustained after the last dose ([6]; both efficacy studies (25 and 17.5 mg/kg), last dose on day 14): at least 7 days | tolerability [7]: well tolerated | antitumor activity ([7]; BALB/c nude mice): Lack of significant antitumor activity | pERK in tumor compared with vehicle control ([8]; single oral dose 17.5 mg/kg, 8 and 24 hours after dose): Inhibition of pERK was observed | pERK in tumor compared with vehicle control ([8]; single oral dose 25 mg/kg, 4, 8, and 24 hours after dose): Inhibition of pERK was observed | anti-proliferative activity ([9]; CTG 72 hours): little activity | EC50 ([9]; Homo sapiens, 72 h, read-out: Proliferation EC50): 7.5 µM | anti-proliferative activity ([10]; A375, CTG 72 hours): potent | EC50 ([10]; Homo sapiens, A-375, 72 h, read-out: Proliferation EC50): 0.62 µM | EC50 ([11]; Homo sapiens, NCI-H1838, 72 h, read-out: Proliferation EC50): > 10 µM | anti-proliferative activity ([11]; NCI-H1838, CTG 72 hours): little activity
